In patent US20130177904A1, “ARNT ISOFORM 3 AS A PREDICTOR OF AMINOFLAVONE RESPONSIVENESS IN CANCER CELLS” (UNIVERSITY OF MARYLAND, BALTIMORE, priority 2010, published 2013):

Assays:
[1] = tested on: gamma-H2AX in MDA-MBA-468; experiment: Western blot analysis for phosphorylated H2AX; format: cell-based, Human; settings: MDA-MBA-468, AF for 24 hrs, FIG. 2B
Protocol: (§1) Western blot analysis for phosphorylated H2AX (γ-H2AX) was performed by first growing cells to between 50% and 80% confluence and treating them with concentrations of AF for 24 hrs, according to the concentration at which 50% of the proliferation was inhibited (IC50). Cells were collected and centrifuged at 1,000×g for 15 minutes at 4° C. Histones were released by the method described by Meng et al. (Cancer Res, 65(12):5337-43 (2005)). Briefly, pellets were washed twice in PBS, homogenized in 0.2 mol/L H2SO4, and centrifuged at 13,000×g. The supernatant was removed and 0.25 volume of 100% (w/v) trichloroacetic acid was added to precipitate the histones. Samples were then centrifuged again at 13,000×g for 15 mins at 4° C. The supernatant was removed and the remaining pellet was suspended in 100% ethanol overnight. A final centrifugation step was performed at 13,000×g for 15 mins at 4° C. The solute was then dissolved in nuclease-free water. Protein concentration was determined using the Bio-Rad Protein Assay (Bio-Rad, CA). 30 μg of protein was resolved on 4-20% Tris-glycine precast gels (Invitrogen). Proteins were transferred onto a PVDF membrane (Immobilon-P, Millipore) and then blocked with 5% milk in TBST (0.1% Tween-20 in 1× Tris-buffered saline—pH 7.4) for 1 hr. […]

[2] = tested on: gamma-H2AX in MDA-MBA-231; experiment: Western blot analysis for phosphorylated H2AX; format: cell-based, Human; settings: MDA-MBA-231, AF for 24 hrs, FIG. 2B
Protocol: as §1

[3] = tested on: PS2 and Cyp1A1 promoters in T47D; experiment: Chromatin Immunoprecipitation (ChIP), AhR and ER crosstalk; format: cell-based, Human; settings: 4 or 8 hours post-treatment with AF, FIG. 3
Description: (§2) Considering that the AhR and ER are both nuclear receptors and act as transcription factors, modulation of ER action after AhR activation by AF (“crosstalk”) was theorized to contribute to overall AF effects in ER+ cell lines. Therefore, Chromatin Immunoprecipitation (ChIP) was employed to study the potential crosstalk of AhR and ER after AF action at the PS2 promoter, a classical ER/estradiol inducible gene, and on Cyp1A1, a classical AF/AhR inducible gene known to be induced by AF. Transcription components studied were the AhR, ER, ARNT (the AhR transcriptional partner), RNA Polymerase II and CBP. CBP is a histone acetyl transferase associated with productive AhR induction of gene expression (Hestermann, E. V. and M. Brown, Mol Cell Biol, 23(21):7920-5 (2003)). In both T47D and MCF7 ER+ cell lines, all transcription components tested were present on the Estradiol inducible PS2 gene promotor, including the AhR. On the Cyp1A1 promotor, all the apparatus excluding CBP was present.
(§3) ChIP analysis was performed employing the Chromatin Immunoprecipitation (ChIP) Assay Kit (Millipore) as per company recommendations. […]
(§4) The resultant DNA was analyzed by PCR employing GoTaq Green Master Mix (Promega) using the following protocol: 94° C. for 2 minutes for initial melting, followed by 35 cycles at 94° C. for 30 seconds, 55° C. for 40 seconds, 72° C. […]

[4] = tested on: PS2 and Cyp1A1 promoters in MCF7; experiment: as above; format: cell-based, Human; settings: MCF7, 4 or 8 hours post-treatment with AF, FIG. 3
Description: as §2, §3, §4

BT-549 = BT-549 breast cancer cell line, as determined by the NIH study; cited from earlier work

What does the source list for `Cc1c(F)c(N)c2c(=O)cc(-c3ccc(N)c(F)c3)oc2c1F` [AF, 5-amino-2-(4-amino-3-fluorophenyl)-6,8-difluoro-7-methylchromen-4-one]?
presence of gamma-H2AX (double stranded DNA breaks) [1]: observed; presence of gamma-H2AX (double stranded DNA breaks) [2]: not observed at all; transcriptional adjustment at PS2 and Cyp1A1 promoters (ChIP) [3]: dissociation of ER-related transcriptional control elements from the PS2 estrogenic promoter and their association with the Cyp1A1 promotor; transcriptional adjustment at PS2 and Cyp1A1 promoters (ChIP) [4]: dissociation of ER-related transcriptional control elements from the PS2 estrogenic promoter and their association with the Cyp1A1 promotor; AF sensitivity (BT-549): AF in-sensitive
